Values quoted from earlier work as cited in patent US20140342380A1, “VERIFYING THE SOURCE OF BIOLOGICAL SAMPLES; METHOD, COMPOSITION AND KIT THEREFOR” (priority 2011, published 2014).
Like-named read-outs stand apart in the source and are kept apart here.

What was measured:
[1] = cited from earlier work
[2] = cited from earlier work; remark: listed apart in the source

## inulin
[1]; general statement
  renal handling / detection in urine after consumption: readily passively filtered by the kidney, e.g., detected in the urine after consumption

## C=CCc1ccc(O)c(OC)c1 [eugenol]
[2]; rat, in vivo
  metabolite(s) found after ingestion: eugenol clove leaf oil metabolized to Glucuronide and sulfate conjugates were identified in urine.

## CCCCCCCCCCCCOC(=O)CCSCCC(=O)OCCCCCCCCCCCC [Dilauryl thiodipropionate (DLTDP), Dilauryl thiodipropionate]
[1]; Table 1 note, species not stated
  metabolite(s) / form excreted in urine after ingestion: Dilauryl thiodipropionate (DLTDP), Ingested DLTDP was excreted in the urine as thiodipropionic

## O=C(OC[C@H]1O[C@@H](OC(=O)c2cc(O)c(O)c(OC(=O)c3cc(O)c(O)c(O)c3)c2)[C@H](OC(=O)c2cc(O)c(O)c(OC(=O)c3cc(O)c(O)c(O)c3)c2)[C@@H](OC(=O)c2cc(O)c(O)c(OC(=O)c3cc(O)c(O)c(O)c3)c2)[C@@H]1OC(=O)c1cc(O)c(O)c(OC(=O)c2cc(O)c(O)c(O)c2)c1)c1cc(O)c(O)c(OC(=O)c2cc(O)c(O)c(O)c2)c1 [Tannic acid]
[2]; Table 1 note, cited study in rat
  metabolite(s) found after ingestion: Tannic acid: metabolized to 4-0-Methylgallic acid (4-OMGA), pyrogallol (PY), and resorcinol
